Values quoted from earlier work, collected in patent publication US5411479A, “Cancer treatment and catheter for use in treatment” (priority 1993, dated 1995).

What was measured:
[1] = tested on: colon cancer metastatic to the liver; details: for effectiveness of arterial infusion: drug delivered directly to liver tumor cells
[2] = for Local hepatobiliary toxicities (hepatitis, cholecystitis, biliary sclerosis, stenosis and stricture): conventional HAI; for Systemic toxicity of HAI chemotherapy: conventional doses; for Hepatitis (nausea, vomiting, abdominal pain, jaundice, elevated liver transaminases and bilirubin): in vivo
[3] = tested on: hepatocellular tumor; details: for activity in hepatocellular tumor: systemic chemotherapy, Phase II trials

SMILES	effectiveness of arterial infusion [1]	Local hepatobiliary toxicities (hepatitis, cholecystitis, biliary sclerosis, stenosis and stricture) [2]	Systemic toxicity of HAI chemotherapy [2]	Hepatitis (nausea, vomiting, abdominal pain, jaundice, elevated liver transaminases and bilirubin) [2]	activity in hepatocellular tumor [3]	dose-response effect ([1]; in vivo)	objective therapeutic responses ([3]; doxorubicin 60 mg/m^2 every 3 weeks)	toxicity ([3]; doxorubicin 75 mg/m^2 every 3 weeks)	objective response ([3]; doxorubicin 75 mg/m^2 every 3 weeks, East African blacks, of 50 patients treated) [patients]	complete response ([3]; doxorubicin 75 mg/m^2 every 3 weeks, among 22 objective responses, 50 patients treated) [patients]
O=c1[nH]c(=O)n([C@H]2C[C@H](O)[C@@H](CO)O2)cc1F [FUDR, floxuridine]	increases their effectiveness	up to 50 % of the patients	has not been a major problem	has occurred						
O=c1[nH]cc(F)c(=O)[nH]1 [5-FU, 5-fluorouracil]	increases their effectiveness	up to 50 % of the patients	has not been a major problem	has occurred	significant activity	displays a dose-response effect				
COc1cccc2c1C(=O)c1c(O)c3c(c(O)c1C2=O)C[C@@](O)(C(=O)CO)C[C@@H]3O[C@H]1C[C@H](N)[C@H](O)[C@H](C)O1 [doxorubicin]					significant activity		approximately 20 % of the patients	Substantial toxicity	22	3
